Source: PubChem BioAssay (NCI)
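Results reflect a 48-hour exposure of cells in 96-well plates to compound at five concentrations. The concentration for 50% growth inhibition is given as GI50. TGI denotes the concentration required for complete inhibition of growth.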

Tests used:
Assay in all cases: NCI anticancer screen, dose series, 48 h
786-0 renal = system: 786-0 renal
A498 renal = system: A498 renal
A549 NSCLC = system: A549 NSCLC
ACHN renal = system: ACHN renal
BT-549 breast = system: BT-549 breast
CAKI-1 renal = system: CAKI-1 renal
CCRF-CEM leukemia = system: CCRF-CEM leukemia
COLO 205 colon = system: COLO 205 colon
DU-145 prostate = system: DU-145 prostate
EKVX NSCLC = system: EKVX NSCLC
HCC-2998 colon = system: HCC-2998 colon
HCT-116 colon = system: HCT-116 colon
HCT-15 colon = system: HCT-15 colon
HOP-62 NSCLC = system: HOP-62 NSCLC
HOP-92 NSCLC = system: HOP-92 NSCLC
HS 578T breast = system: HS 578T breast
HT29 colon = system: HT29 colon
IGROV1 ovarian = system: IGROV1 ovarian
K-562 leukemia = system: K-562 leukemia
KM12 colon = system: KM12 colon
LOX IMVI melanoma = system: LOX IMVI melanoma
M14 melanoma = system: M14 melanoma
MALME-3M melanoma = system: MALME-3M melanoma
MCF7 breast = system: MCF7 breast
MDA-MB-231 breast = system: MDA-MB-231 breast
MDA-MB-435 = system: MDA-MB-435
MOLT-4 leukemia = system: MOLT-4 leukemia
NCI-H226 lung = system: NCI-H226 lung
NCI-H23 lung = system: NCI-H23 lung
NCI-H460 lung = system: NCI-H460 lung
NCI-H522 lung = system: NCI-H522 lung
OVCAR-3 ovarian = system: OVCAR-3 ovarian
OVCAR-4 ovarian = system: OVCAR-4 ovarian
OVCAR-5 ovarian = system: OVCAR-5 ovarian
OVCAR-8 ovarian = system: OVCAR-8 ovarian
PC-3 prostate = system: PC-3 prostate
RPMI-8226 leukemia = system: RPMI-8226 leukemia
RXF 393 renal = system: RXF 393 renal
SF-268 CNS = system: SF-268 CNS
SF-295 CNS = system: SF-295 CNS
SF-539 CNS = system: SF-539 CNS
SK-MEL-2 melanoma = system: SK-MEL-2 melanoma
SK-MEL-28 melanoma = system: SK-MEL-28 melanoma
SK-MEL-5 melanoma = system: SK-MEL-5 melanoma
SK-OV-3 ovarian = system: SK-OV-3 ovarian
SN12C renal = system: SN12C renal
SNB-19 CNS = system: SNB-19 CNS
SNB-75 CNS = system: SNB-75 CNS
SW-620 colon = system: SW-620 colon
T-47D breast = system: T-47D breast
TK-10 renal = system: TK-10 renal
U251 CNS = system: U251 CNS
UACC-257 melanoma = system: UACC-257 melanoma
UACC-62 melanoma = system: UACC-62 melanoma
UO-31 renal = system: UO-31 renal

Compound `Cc1ccc2[nH]c(C(=O)NN3C(=O)CSC34CCCC(C)C4)c(-c3ccccc3)c2c1` (stereo not given) has a GI50 (786-0 renal) of 19.6 µM, a TGI (786-0 renal) of 39.3 µM and a GI50 (A498 renal) of 17.5 µM. The TGI (A498 renal) was 36.3 µM, the GI50 (A549 NSCLC) was 15.2 µM and the TGI (A549 NSCLC) was 30.5 µM. For the same compound, the GI50 (ACHN renal) was 18.3 µM, the TGI (ACHN renal) was 36.1 µM and the GI50 (BT-549 breast) was 19.5 µM. The TGI (BT-549 breast) was 36.5 µM, the GI50 (CAKI-1 renal) was 15.5 µM and the TGI (CAKI-1 renal) was 33.8 µM. The GI50 (CCRF-CEM leukemia) was 10.8 µM, the TGI (CCRF-CEM leukemia) was 31.8 µM and the GI50 (COLO 205 colon) was 17.5 µM. The TGI (COLO 205 colon) was 35.4 µM, the GI50 (DU-145 prostate) was 18.7 µM and the TGI (DU-145 prostate) was 42.4 µM. For the same compound, the GI50 (EKVX NSCLC) was 24.2 µM, the TGI (EKVX NSCLC) was 58.8 µM and the GI50 (HCC-2998 colon) was 14.5 µM. It also gave a TGI (HCC-2998 colon) of 28.8 µM, a GI50 (HCT-116 colon) of 14.6 µM and a TGI (HCT-116 colon) of 31 µM. The GI50 (HCT-15 colon) was 18.3 µM, the TGI (HCT-15 colon) was 37.2 µM and the GI50 (HOP-62 NSCLC) was 19.2 µM. It also gave a TGI (HOP-62 NSCLC) of 35.1 µM, a GI50 (HOP-92 NSCLC) of 13.1 µM and a TGI (HOP-92 NSCLC) of 28.3 µM. The GI50 (HS 578T breast) was 28.2 µM, the TGI (HS 578T breast) was 68 µM and the GI50 (HT29 colon) was 13.8 µM. It also gave a TGI (HT29 colon) of 29.4 µM, a GI50 (IGROV1 ovarian) of 0.0485 µM and a TGI (IGROV1 ovarian) of 12 µM. The GI50 (K-562 leukemia) was 12.7 µM, the TGI (K-562 leukemia) was 39.2 µM and the GI50 (KM12 colon) was 16.2 µM. The TGI (KM12 colon) was 34.3 µM, the GI50 (LOX IMVI melanoma) was 19.8 µM and the TGI (LOX IMVI melanoma) was 37.1 µM. For the same compound, the GI50 (M14 melanoma) was 18.8 µM, the TGI (M14 melanoma) was 35.5 µM and the GI50 (MALME-3M melanoma) was 18.3 µM. The TGI (MALME-3M melanoma) was 34.7 µM, the GI50 (MCF7 breast) was 15.4 µM and the TGI (MCF7 breast) was 38.5 µM. The GI50 (MDA-MB-231 breast) was 17.2 µM, the TGI (MDA-MB-231 breast) was 34 µM and the GI50 (MDA-MB-435) was 18 µM. The TGI (MDA-MB-435) was 34.8 µM, the GI50 (MOLT-4 leukemia) was 8.77 µM and the TGI (MOLT-4 leukemia) was 31.9 µM. The GI50 (NCI-H226 lung) was 18.4 µM, the TGI (NCI-H226 lung) was 35.2 µM and the GI50 (NCI-H23 lung) was 20 µM. It also gave a TGI (NCI-H23 lung) of 36 µM, a GI50 (NCI-H460 lung) of 18.1 µM and a TGI (NCI-H460 lung) of 38.4 µM. The GI50 (NCI-H522 lung) was 11.9 µM, the TGI (NCI-H522 lung) was 25.6 µM and the GI50 (OVCAR-3 ovarian) was 13.8 µM. The TGI (OVCAR-3 ovarian) was 30.3 µM, the GI50 (OVCAR-4 ovarian) was 18.4 µM and the TGI (OVCAR-4 ovarian) was 40.2 µM. It also gave a GI50 (OVCAR-5 ovarian) of 18.3 µM, a TGI (OVCAR-5 ovarian) of 34.8 µM and a GI50 (OVCAR-8 ovarian) of 15.6 µM. For the same compound, the TGI (OVCAR-8 ovarian) was 32.9 µM, the GI50 (PC-3 prostate) was 14.2 µM and the TGI (PC-3 prostate) was 29.6 µM. For the same compound, the GI50 (RPMI-8226 leukemia) was 13.7 µM, the TGI (RPMI-8226 leukemia) was 31.5 µM and the GI50 (RXF 393 renal) was 5.85 µM. The TGI (RXF 393 renal) was 20.3 µM, the GI50 (SF-268 CNS) was 15.6 µM and the TGI (SF-268 CNS) was 32.5 µM. It also gave a GI50 (SF-295 CNS) of 17.2 µM, a TGI (SF-295 CNS) of 33.5 µM and a GI50 (SF-539 CNS) of 21 µM. For the same compound, the TGI (SF-539 CNS) was 39.4 µM, the GI50 (SK-MEL-2 melanoma) was 9.12 µM and the TGI (SK-MEL-2 melanoma) was 23.1 µM. The GI50 (SK-MEL-28 melanoma) was 19.7 µM, the TGI (SK-MEL-28 melanoma) was 37.6 µM and the GI50 (SK-MEL-5 melanoma) was 17.4 µM. The TGI (SK-MEL-5 melanoma) was 34.9 µM, the GI50 (SK-OV-3 ovarian) was 21.5 µM and the TGI (SK-OV-3 ovarian) was 48.3 µM. The GI50 (SN12C renal) was 16.6 µM, the TGI (SN12C renal) was 32.2 µM and the GI50 (SNB-19 CNS) was 18.6 µM. The TGI (SNB-19 CNS) was 36.6 µM, the GI50 (SNB-75 CNS) was 17.1 µM and the TGI (SNB-75 CNS) was 34.6 µM. For the same compound, the GI50 (SW-620 colon) was 25.6 µM, the TGI (SW-620 colon) was 67.1 µM and the GI50 (T-47D breast) was 20.3 µM. The TGI (T-47D breast) was 55.2 µM, the GI50 (TK-10 renal) was 17.2 µM and the TGI (TK-10 renal) was 34.7 µM. The GI50 (U251 CNS) was 17.3 µM, the TGI (U251 CNS) was 33.6 µM and the GI50 (UACC-257 melanoma) was 19.2 µM. The TGI (UACC-257 melanoma) was 35 µM, the GI50 (UACC-62 melanoma) was 13.9 µM and the TGI (UACC-62 melanoma) was 29.2 µM. For the same compound, the GI50 (UO-31 renal) was 0.0274 µM and the TGI (UO-31 renal) was 10.6 µM.
